The source of these data is patent US9512114B2, “Substituted aminopyrimidine compounds and methods of use” (Calitor Sciences, LLC, priority 2013, dated 2016).

Data set [1] in a line: Compound stability in human liver microsomes. The following applies: pH 7.4; for CLint scaled at 5 μM: liver microsomes, in vivo CLint extrapolated from human liver microsome incubation; for half-life at 5 μM: human liver microsomes 0.5 mg protein/mL, compound 5 μM, NADPH 1.0 mM, 37° C., read-out: Human T1/2. The class given is in vitro ADME. On the procedure: (§1) The LC/MS/MS system used in the analysis consists of an Agilent 1200 Series vacuum degasser, binary pump, well-plate autosampler, thermostatted column compartment, the Agilent G6430 Triple Quadrupole Mass Spectrometer with an electrosprayionization (ESI) source. Quantitative analysis was carried out using MRM mode. The parameters for MRM transitions are in the Table A.
(§2) An Agilent XDB-C18, 2.1×30 mm, […] column was used for the analysis. 5 μL of the samples were injected. Analysis condition: The mobile phase was 0.1% formic acid in water (A) and 0.1% formic acid in methanol (B). The flow rate was 0.4 mL/min. And the gradient of Mobile phase was in the Table B.
(§3) Alternatively, an Agilent 6330 series LC/MS/MS spectrometer equipped with G1312A binary pumps, a G1367A autosampler and a G1314C UV detector were used in the analysis. An ESI source was used on the LC/MS/MS spectrometer. The analysis was done in positive ion mode as appropriate and the MRM transition for each analyte was optimized using standard solution. A Capcell MP-C18 100×4.6 mm I.D., […] column (Phenomenex, Torrance, Calif., USA) was used during the analysis. The mobile phase was 5 mM ammonia acetate, 0.1% MeOH in water (A): 5 mM ammonia acetate, 0.1% MeOH in acetonitrile (B) (70:30, v/v). The flow rate was 0.6 mL/min. Column was maintained at ambient temperature. 20 μL of the samples were injected.
(§4) Human or rat liver microsomes incubations were conducted in duplicate in polypropylene tubes. The typical incubation mixtures consisted of human or rat liver microsomes (0.5 mg protein/mL), compounds of interest (5 μM) and NADPH (1.0 mM) in a total volume of 200 μL potassium phosphate buffer (PBS, 100 mM, pH 7.4). Compounds were dissolved in DMSO and diluted with PBS such that the final concentration of DMSO was 0.05%. The enzymatic reactions were commenced with the addition of protein after a 3-min preincubation and incubated in a water bath open to the air at 37° C. Reactions were terminated at various time points (0, 5, 10, 15, 30, 60 min) by adding equal volume of ice-cold acetonitrile. The samples were stored at −80° C. until LC/MS/MS assays.
(§5) The concentrations of compounds in the incubation mixtures of human or rat liver microsomes were determined by a LC/MS/MS method. The ranges of the linearity in the concentration range were determined for each tested compounds.
(§6) A parallel incubation was performed using denatured microsomes as the negative control, and reactions were terminated at various time points (0, 15, 60 min) after incubation at 37° C.
(§7) Dextromethorphan (70 μM) was selected as the positive control, and reactions were terminated at various time points (0, 5, 10, 15, 30, 60 min) after incubation at 37° C. Both positive and negative control samples were included in each assay to ensure the integrity of the microsomal incubation system.
(§8) The concentrations of compounds in human or rat liver microsome incubations were plotted as a percentage of the relevant zero time point control for each reaction. The in vivo CLint were extrapolated (ref.: Naritomi, Y.; Terashita, S.; Kimura, S.; Suzuki, A.; Kagayama, A.; and Sugiyama, Y.; Prediction of human hepatic clearance from in vivo animal experiments and in vitro metabolic studies with liver microsomes from animals and humans. Drug Metab. Dispos., 2001, 29: 1316-1324).

The nature of data set [2]: Compound stability in rat liver microsomes. Type of data set: in vitro ADME. The following applies: pH 7.4; for CLint scaled at 5 μM: liver microsomes, in vivo CLint extrapolated from rat liver microsome incubation; for half-life at 5 μM: rat liver microsomes 0.5 mg protein/mL, compound 5 μM, NADPH 1.0 mM, 37° C., read-out: Rat T1/2. On the procedure:
as §1, §2, §3, §4, §5, §6, §7, §8

A further data set concerns the target PI3K (p120γ) (h) (Homo sapiens (Human), UniProt P48736). Description: PI3K (p120γ) (h) non-radioactive HTRF kinase assay. The settings on record: performed at Millipore UK Ltd. The class given is biochemical. The procedure:
(§9) The above assay procedure can be used to determine the IC50 for inhibition and/or the inhibition constant, Ki.
PI3K (p120γ) (h) [Non-Radioactive Assay]
(§10) PI3K (p120γ) (h) is incubated in assay buffer containing 10 μM phosphatidylinositol-4, 5-bisphosphate and MgATP (concentration as required). The reaction is initiated by the addition of the MgATP mix. After incubation for 30 minutes at room temperature, the reaction is stopped by the addition of stop solution containing EDTA and biotinylated phosphatidylinositol-3,4,5-trisphosphate. Finally, detection buffer is added, which contains europium-labelled anti-GST monoclonal antibody, GST-tagged GRP1 PH domain and streptavidin-allophycocyanin. The plate is then read in timeresolved fluorescence mode and the homogenous time-resolved fluorescence (HTRF) signal is determined according to the formula HTRF=10000×(Em665 nm/Em620 nm).
(§11) The kinase assays described herein were performed at Millipore UK Ltd, Dundee Technology Park, Dundee DD2 1SW, UK.

The target of another data set is PI3K (p110α/p85α) (h) (Homo sapiens (Human), UniProt P42336). In words: PI3K (p110α/p85α) (h) non-radioactive HTRF kinase assay. The class given is biochemical. The following applies: performed at Millipore UK Ltd. The procedure:
as §9
PI3K (p110α/p85α) (h) [Non-Radioactive Assay]
as §10, with “(p110α/p85α)” for “(p120γ)”, “phosphatidylinositol 4,5-bisphosphate” for “phosphatidylinositol-4, 5-bisphosphate”, “ATP solution.” for “MgATP mix.”, “streptavidin allophycocyanin.” for “streptavidin-allophycocyanin.”
as §11

A short description of data set [3]: Pharmacokinetic profiles in rats. The class given is in vivo, rat. The following applies: for Cl/F / AUC(0-t) / half-life / Vd: iv dosing 1 mg/kg; for F: oral vs iv (iv 1 mg/kg; p.o. generally 5 or 10 mg/kg); for AUC(0-t) / half-life / Vd: rat, plasma; for Vd: read-out: Vss. The procedure:
The compounds disclosed herein are assessed in pharmacokinetic studies in mice, rats, dogs or monkeys. The compounds are administered as a water solution, 2% HPMC+1% TWEEN®80 in water solution, 5% DMSO+5% solutol in saline, 4% MC suspension or capsule. For the intravenous administration, the animals are generally given at 1 or 2 mg/kg dose. For the oral (p.o.) dosing, mice and rats are generally given 5 or 10 mg/kg dose, and dogs and monkeys are generally given 10 mg/kg dose. The blood samples (0.3 mL) are drawn at 0.25, 0.5, 1.0, 2.0, 3.0, 4.0, 6.0, 8.0, 12 and 24 h time points or 0.083, 0.25, 0.5, 1.0, 2.0, 4.0, 6.0, 8.0 and 24 h time points and centrifuged at 3,000 or 4000 rpm for 2 to 10 min. The plasma solutions are collected, stored at −20° C. or −70° C. until analyzed by LC/MS/MS as described above.

In another data set the target is PI3K (p110δ/p85α) (h) (Homo sapiens (Human), UniProt O00329). Description: PI3K (p110δ/p85α) (h) non-radioactive HTRF kinase assay. Type of data set: biochemical. The following applies: performed at Millipore UK Ltd. On the procedure: as §9
PI3K (p110δ/p85α) (h) [Non-Radioactive Assay]
as §10, with “(p110δ/p85α)” for “(p120γ)”
as §11

Sequence of PI3K (p110δ/p85α) (h) (O00329 whole entry): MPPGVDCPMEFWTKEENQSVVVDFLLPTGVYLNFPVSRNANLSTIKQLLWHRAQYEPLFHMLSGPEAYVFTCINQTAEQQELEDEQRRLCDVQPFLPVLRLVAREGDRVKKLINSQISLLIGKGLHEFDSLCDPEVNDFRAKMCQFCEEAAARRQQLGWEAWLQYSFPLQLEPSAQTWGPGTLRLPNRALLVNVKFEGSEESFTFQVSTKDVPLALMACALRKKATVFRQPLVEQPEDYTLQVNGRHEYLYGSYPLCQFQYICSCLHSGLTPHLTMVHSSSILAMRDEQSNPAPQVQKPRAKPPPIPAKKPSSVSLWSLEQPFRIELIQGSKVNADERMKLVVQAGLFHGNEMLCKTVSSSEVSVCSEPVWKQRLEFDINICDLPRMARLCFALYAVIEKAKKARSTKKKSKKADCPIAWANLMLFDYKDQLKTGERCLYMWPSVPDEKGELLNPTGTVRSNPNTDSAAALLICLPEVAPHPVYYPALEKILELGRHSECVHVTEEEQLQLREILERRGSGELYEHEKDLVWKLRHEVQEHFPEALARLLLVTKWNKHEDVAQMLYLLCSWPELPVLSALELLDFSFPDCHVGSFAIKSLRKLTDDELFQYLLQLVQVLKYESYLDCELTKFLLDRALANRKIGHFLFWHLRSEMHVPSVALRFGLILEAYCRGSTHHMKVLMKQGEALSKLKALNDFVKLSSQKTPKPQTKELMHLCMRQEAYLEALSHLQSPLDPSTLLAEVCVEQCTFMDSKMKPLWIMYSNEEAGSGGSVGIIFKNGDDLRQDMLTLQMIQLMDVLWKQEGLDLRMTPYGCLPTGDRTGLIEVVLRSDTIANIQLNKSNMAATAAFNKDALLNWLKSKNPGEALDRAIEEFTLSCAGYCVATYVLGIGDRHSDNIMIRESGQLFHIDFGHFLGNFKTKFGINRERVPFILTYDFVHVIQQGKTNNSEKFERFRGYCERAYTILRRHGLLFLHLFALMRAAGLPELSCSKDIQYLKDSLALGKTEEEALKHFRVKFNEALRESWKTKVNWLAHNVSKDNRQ
Sequence of PI3K (p110δ/p85α) (h) (P27986 whole entry partner): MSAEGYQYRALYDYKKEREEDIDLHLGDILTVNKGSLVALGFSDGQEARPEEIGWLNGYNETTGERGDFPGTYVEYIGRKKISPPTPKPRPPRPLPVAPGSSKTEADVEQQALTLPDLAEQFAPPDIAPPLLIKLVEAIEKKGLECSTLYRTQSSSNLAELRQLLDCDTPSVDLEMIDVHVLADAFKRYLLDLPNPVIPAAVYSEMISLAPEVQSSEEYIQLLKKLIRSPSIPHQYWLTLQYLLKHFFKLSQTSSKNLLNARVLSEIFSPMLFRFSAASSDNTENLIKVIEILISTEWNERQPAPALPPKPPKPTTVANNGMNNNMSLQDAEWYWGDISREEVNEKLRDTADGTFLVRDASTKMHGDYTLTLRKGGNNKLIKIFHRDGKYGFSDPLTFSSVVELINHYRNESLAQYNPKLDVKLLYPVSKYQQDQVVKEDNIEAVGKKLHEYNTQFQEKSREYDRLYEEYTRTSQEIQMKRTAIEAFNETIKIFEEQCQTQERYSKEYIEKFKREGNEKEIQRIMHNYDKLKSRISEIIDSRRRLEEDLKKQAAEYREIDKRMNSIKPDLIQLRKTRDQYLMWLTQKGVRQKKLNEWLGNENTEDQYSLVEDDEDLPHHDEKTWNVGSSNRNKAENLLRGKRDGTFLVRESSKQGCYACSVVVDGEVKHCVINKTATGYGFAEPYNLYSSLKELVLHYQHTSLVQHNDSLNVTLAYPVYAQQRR
Sequence of PI3K (p110α/p85α) (h) (P42336 whole entry): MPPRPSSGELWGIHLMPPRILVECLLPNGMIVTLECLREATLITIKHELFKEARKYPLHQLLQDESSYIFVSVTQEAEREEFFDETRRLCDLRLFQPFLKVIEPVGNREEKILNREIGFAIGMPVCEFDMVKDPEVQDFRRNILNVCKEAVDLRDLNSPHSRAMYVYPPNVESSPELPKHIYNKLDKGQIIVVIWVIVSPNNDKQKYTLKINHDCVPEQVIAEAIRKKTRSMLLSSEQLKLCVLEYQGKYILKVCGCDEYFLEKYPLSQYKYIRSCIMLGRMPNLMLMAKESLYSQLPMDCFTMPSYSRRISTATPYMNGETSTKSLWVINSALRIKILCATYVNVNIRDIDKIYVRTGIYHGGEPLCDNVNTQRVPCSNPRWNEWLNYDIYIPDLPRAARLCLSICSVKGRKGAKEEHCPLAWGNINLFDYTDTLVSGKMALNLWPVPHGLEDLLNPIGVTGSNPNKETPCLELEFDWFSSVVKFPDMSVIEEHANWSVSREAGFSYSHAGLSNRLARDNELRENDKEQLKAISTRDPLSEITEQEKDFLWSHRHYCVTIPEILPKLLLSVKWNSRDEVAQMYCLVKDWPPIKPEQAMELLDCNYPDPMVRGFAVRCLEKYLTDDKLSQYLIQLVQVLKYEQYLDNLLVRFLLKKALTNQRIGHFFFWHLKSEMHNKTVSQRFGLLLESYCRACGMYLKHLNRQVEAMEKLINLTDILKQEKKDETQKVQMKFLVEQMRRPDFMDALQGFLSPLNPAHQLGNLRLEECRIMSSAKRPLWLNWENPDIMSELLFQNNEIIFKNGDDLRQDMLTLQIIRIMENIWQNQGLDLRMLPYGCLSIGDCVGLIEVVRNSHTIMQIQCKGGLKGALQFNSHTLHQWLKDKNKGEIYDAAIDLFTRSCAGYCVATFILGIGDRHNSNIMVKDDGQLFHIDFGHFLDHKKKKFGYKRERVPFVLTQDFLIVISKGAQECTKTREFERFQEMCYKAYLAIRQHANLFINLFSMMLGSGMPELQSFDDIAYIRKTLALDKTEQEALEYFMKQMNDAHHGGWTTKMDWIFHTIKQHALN
Sequence of PI3K (p110α/p85α) (h) (P27986 whole entry partner): as the sequence (P27986 whole entry partner) above
Sequence of PI3K (p120γ) (h) (P48736 whole entry): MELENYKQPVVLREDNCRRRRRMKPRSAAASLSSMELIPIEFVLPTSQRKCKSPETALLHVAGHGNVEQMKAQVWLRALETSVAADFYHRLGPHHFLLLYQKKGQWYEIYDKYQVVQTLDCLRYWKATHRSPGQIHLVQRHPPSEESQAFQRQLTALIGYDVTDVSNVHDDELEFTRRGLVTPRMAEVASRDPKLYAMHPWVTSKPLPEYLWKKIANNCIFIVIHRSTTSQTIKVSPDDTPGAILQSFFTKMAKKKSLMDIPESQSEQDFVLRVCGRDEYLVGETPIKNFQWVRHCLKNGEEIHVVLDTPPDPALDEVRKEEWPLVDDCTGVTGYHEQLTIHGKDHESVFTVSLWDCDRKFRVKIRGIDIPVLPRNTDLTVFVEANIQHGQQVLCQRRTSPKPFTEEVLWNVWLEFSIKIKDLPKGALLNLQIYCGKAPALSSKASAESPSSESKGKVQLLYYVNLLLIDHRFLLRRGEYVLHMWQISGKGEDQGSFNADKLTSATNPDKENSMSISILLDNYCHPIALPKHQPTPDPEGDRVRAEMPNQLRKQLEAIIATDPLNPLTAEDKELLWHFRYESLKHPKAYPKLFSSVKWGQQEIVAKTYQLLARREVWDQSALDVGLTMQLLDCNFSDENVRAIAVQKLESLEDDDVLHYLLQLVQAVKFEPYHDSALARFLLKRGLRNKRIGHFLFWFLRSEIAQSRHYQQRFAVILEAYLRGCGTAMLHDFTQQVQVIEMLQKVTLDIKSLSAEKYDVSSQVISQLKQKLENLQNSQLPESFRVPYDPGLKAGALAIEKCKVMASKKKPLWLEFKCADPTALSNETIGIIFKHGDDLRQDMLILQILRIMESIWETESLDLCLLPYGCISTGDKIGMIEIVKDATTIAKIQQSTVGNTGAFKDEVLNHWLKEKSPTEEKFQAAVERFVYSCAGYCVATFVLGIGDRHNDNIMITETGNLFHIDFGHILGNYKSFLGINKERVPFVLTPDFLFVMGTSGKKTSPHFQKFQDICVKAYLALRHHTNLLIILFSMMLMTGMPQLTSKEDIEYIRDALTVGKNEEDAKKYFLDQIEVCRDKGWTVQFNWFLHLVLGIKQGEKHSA

For the compound `Cc1noc(-c2c(N)ncnc2N[C@@H](C)c2cc3cccc(Cl)c3c(=O)n2C2CC2)n1` [Ex. 24, (S)-3-(1-((6-amino-5-(3-methyl-1,2,4-oxadiazol-5-yl)pyrimidin-4-yl)amino)ethyl)-8-chloro-2-cyclopropylisoquinolin-1(2H)-one], in data set [1], the intrinsic metabolic clearance (CLint scaled) at 5 μM was 114 mL/min/kg and the half-life at 5 μM is 15.3 min. Besides, in data set [2], the CLint scaled at 5 μM is 190 mL/min/kg and the half-life at 5 μM was found to be 13.1 min. The IC50 on PI3K (p120γ) (h) was 0.015 µM. The IC50 at PI3K (p110α/p85α) (h) stood at 0.307 µM. Moreover, in data set [3], the Cl/F came out at 120 mL/min/kg, the F came to 12.28%, the area under the curve AUC(0-t) came to 139 ng·h/mL and the half-life was 45 min. Also, the Vd in data set [3] was determined as 5.46 L/kg. Also, on PI3K (p110δ/p85α) (h), the IC50 turned out to be 0.003 µM.
With `CC[C@H](Nc1ncnc(N)c1-c1nc(C)no1)c1cc2cccc(F)c2c(=O)n1C1CC1` [Ex. 1, (S)-3-(1-((6-amino-5-(3-methyl-1,2,4-oxadiazol-5-yl)pyrimidin-4-yl)amino)propyl)-2-cyclopropyl-8-fluoroisoquinolin-1(2H)-one], in data set [1], the CLint scaled at 5 μM is 243 mL/min/kg and the half-life at 5 μM is 10.2 min. Besides, in data set [2], the CLint scaled at 5 μM is 219 mL/min/kg and the half-life at 5 μM was 11.3 min. Also, in data set [3], the Cl/F is 93 mL/min/kg, the F turned out to be 46.34%, the AUC(0-t) is 178 ng·h/mL and the half-life is 37.8 min. For the same compound, the Vd in data set [3] worked out at 3.99 L/kg. At PI3K (p110δ/p85α) (h), the IC50 was 0.005 µM.
Take `CCc1noc(-c2c(N)ncnc2N[C@@H](CC)c2cc3cccc(Cl)c3c(=O)n2C2CC2)n1` [Ex. 22, (S)-3-(1-((6-amino-5-(3-ethyl-1,2,4-oxadiazol-5-yl)pyrimidin-4-yl)amino)propyl)-8-chloro-2-cyclopropylisoquinolin-1(2H)-one]: in data set [1], the CLint scaled at 5 μM is 138 mL/min/kg and the half-life at 5 μM is 12.6 min. In addition, in data set [2], the CLint scaled at 5 μM is 259 mL/min/kg and the half-life at 5 μM is 9.58 min. In data set [3], the Cl/F amounted to 99.8 mL/min/kg, the F turned out to be 16.23%, the AUC(0-t) was 167 ng·h/mL and the half-life is 79.2 min. Further, the Vd in data set [3] was found to be 6.07 L/kg. Also, at PI3K (p110δ/p85α) (h), the IC50 was determined as 0.003 µM.
Turning to `CC[C@H](Nc1ncnc(N)c1-c1noc(C)n1)c1cc2cccc(F)c2c(=O)n1-c1ccccc1` [Ex. 18, (S)-3-(1-((6-amino-5-(5-methyl-1,2,4-oxadiazol-3-yl)pyrimidin-4-yl)amino)propyl)-8-fluoro-2-phenylisoquinolin-1(2H)-one], in data set [1], the CLint scaled at 5 μM was 226 mL/min/kg and the half-life at 5 μM came to 7.7 min. Further, in data set [2], the CLint scaled at 5 μM was 330 mL/min/kg and the half-life at 5 μM was 7.53 min. In data set [3], this compound showed a Cl/F of 51.7 mL/min/kg, an F of 38.15%, an AUC(0-t) of 323 ng·h/mL and a half-life of 46.5 min. In addition, the Vd in data set [3] was determined as 1.66 L/kg. Further, the half-inhibitory concentration (IC50) at PI3K (p110δ/p85α) (h) is 0.032 µM.
Regarding `Cc1nc(-c2c(N)ncnc2N[C@@H](C)c2cc3cccc(Cl)c3c(=O)n2C2CC2)no1` [Ex. 11, (S)-3-(1-((6-amino-5-(5-methyl-1,2,4-oxadiazol-3-yl)pyrimidin-4-yl)amino)ethyl)-8-chloro-2-cyclopropylisoquinolin-1(2H)-one], the CLint scaled at 5 μM in data set [1] was 545 mL/min/kg; in data set [2], 317 mL/min/kg. Besides, the half-life at 5 μM in data set [1] was determined as 3.19 min; in data set [2] it was 7.83 min. Moreover, the IC50 was 0.375 µM at PI3K (p120γ) (h), 1.48 µM on PI3K (p110α/p85α) (h) and 0.013 µM on PI3K (p110δ/p85α) (h).

Usually CLint scaled stands for a measure of how fast metabolising enzymes remove a compound, apart from limits set by blood flow. A word on the IC50: it is the point on the concentration scale where inhibition reaches its midpoint. As usually defined, the AUC(0-t) is the area under the concentration-time curve up to a stated or last time point. A lower AUC(0-t) goes with low exposure.
